The supplement of paper PMC4977894
± gives the standard deviation of the averaged measurements.

Experiments:
[1] = system: Homo sapiens (human subject panel, olfactory perception); test: perceived odor pleasantness rating (rating 0-100); higher = more pleasant
Procedure: (§1)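 Human olfactory psychophysics. 55 healthy subjects (after excluding 6 low performers) sniffed 1 mL of each odorant diluted in paraffin oil (vials, two dilutions per molecule, 20 molecules presented twice). Each subject rated intensity, pleasantness and familiarity on a 0-100 slider, starting at 50 and required to move. Ratings were given only when the subject reported detecting a smell; per-subject ratings are averaged over subjects.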

[2] = system: Homo sapiens (human subject panel, olfactory perception); test: perceived odor intensity rating (rating 0-100); higher = stronger perceived smell
Procedure: as §1

[3] = system: Homo sapiens (human subject panel, olfactory perception); test: perceived odor familiarity rating (rating 0-100); higher = more familiar
Procedure: as §1

[4] = odor dilution in paraffin oil: 1/1,000
[5] = odor dilution in paraffin oil: 1/100,000
[6] = odor dilution in paraffin oil: 1/10,000,000
[7] = odor dilution in paraffin oil: 1/10

Row | Compound | perceived odor pleasantness rating [1, 4] | perceived odor pleasantness rating [1, 5] | perceived odor intensity rating [2, 4] | perceived odor intensity rating [2, 5] | perceived odor familiarity rating [3, 4] | perceived odor familiarity rating [3, 5] | perceived odor pleasantness rating [1, 6] | perceived odor intensity rating [2, 6] | perceived odor familiarity rating [3, 6] | perceived odor pleasantness rating [1, 7] | perceived odor intensity rating [2, 7] | perceived odor familiarity rating [3, 7]
1 | COc1nccnc1C [2-Methoxy-3-methylpyrazine] | 34.3 ± 34 | 52.6 ± 31 | 87.9 ± 13 | 79.5 ± 17 | 63 ± 31 | 64.6 ± 31 |  |  |  |  |  | 
2 | COc1cc(C)ccc1O [2-Methoxy-4-methylphenol (replicate)] |  | 39.5 ± 24 |  | 63 ± 28 |  | 51.8 ± 31 | 45.5 ± 20 | 33 ± 31 | 38.9 ± 26 |  |  | 
3 | COc1cc(C)ccc1O [2-Methoxy-4-methylphenol] |  | 39.6 ± 22 |  | 60.2 ± 27 |  | 53.6 ± 30 | 43.9 ± 23 | 27 ± 29 | 37.5 ± 32 |  |  | 
4 | COc1ccccc1OC(C)=O [2-Methoxyphenyl acetate] | 37.4 ± 27 | 45.5 ± 27 | 74.2 ± 20 | 56 ± 30 | 46.3 ± 30 | 45.5 ± 30 |  |  |  |  |  | 
5 | COc1cnccn1 [2-Methoxypyrazine] | 37.3 ± 30 | 54.8 ± 26 | 68.3 ± 29 | 41.6 ± 30 | 51.9 ± 34 | 52.6 ± 30 |  |  |  |  |  | 
6 | COc1ccccc1S [2-Methoxythiophenol] |  | 15.7 ± 23 |  | 88.2 ± 13 |  | 40.6 ± 34 | 52.7 ± 24 | 25.8 ± 22 | 37.6 ± 30 |  |  | 
7 | CCC(C)CO (configuration not stated) [2-Methyl-1-butanol (replicate)] | 28 ± 26 | 44.4 ± 23 | 78.8 ± 18 | 36.4 ± 31 | 47.1 ± 32 | 37.1 ± 31 |  |  |  |  |  | 
8 | CCC(C)CO (configuration not stated) [2-Methyl-1-butanol] | 38.4 ± 24 | 48.6 ± 21 | 56.2 ± 33 | 32.2 ± 26 | 43.7 ± 29 | 43.3 ± 31 |  |  |  |  |  | 
9 | CSc1ccoc1C [2-Methyl-3-methylthiofuran] |  | 24.5 ± 19 |  | 66.8 ± 24 |  | 48.1 ± 28 | 39.4 ± 20 | 31.4 ± 28 | 33 ± 24 |  |  | 
10 | CCCC1CCOC(C)S1 (configuration not stated) [2-Methyl-4-propyl-1,3-oxathiane] |  | 38.8 ± 30 |  | 68.7 ± 25 |  | 53.6 ± 33 | 51 ± 26 | 22.7 ± 30 | 27.9 ± 27 |  |  | 
11 | CC1CCCCC1=O (configuration not stated) [2-Methylcyclohexanone] | 31.6 ± 25 | 50.9 ± 22 | 74.6 ± 25 | 12.6 ± 18 | 49.8 ± 32 | 33.4 ± 30 |  |  |  |  |  | 
12 | Cc1ccco1 [2-Methylfuran] |  | 52.6 ± 21 |  | 25.1 ± 29 |  | 36.9 ± 27 | 39.4 ± 22 | 28.9 ± 27 | 38.5 ± 24 |  |  | 
13 | CCCC(C)C(=O)O (configuration not stated) [2-Methylpentanoic acid] |  | 50 ± 25 |  | 31.7 ± 30 |  | 37.4 ± 31 | 37.9 ± 24 | 35.6 ± 33 | 38 ± 29 |  |  | 
14 | CCCCCCCC(C)=O [2-Nonanone] | 60.3 ± 23 | 49.6 ± 23 | 58 ± 25 | 29.4 ± 30 | 52.3 ± 32 | 39.1 ± 31 |  |  |  |  |  | 
15 | CC(C)C(=O)OCCOc1ccccc1 [2-Phenoxyethyl isobutyrate] | 55.1 ± 26 |  | 27.5 ± 29 |  | 30.3 ± 31 |  |  |  |  | 43.8 ± 22 | 58.7 ± 26 | 44 ± 30
16 | CC=C(C=O)c1ccccc1 [2-Phenyl-2-butenal] |  | 36.6 ± 25 |  | 19.8 ± 24 |  | 30.9 ± 30 | 57.5 ± 21 | 20.1 ± 29 | 34.5 ± 24 |  |  | 
17 | S=C=NCCc1ccccc1 [2-Phenylethyl isothiocyanate] | 21.3 ± 21 | 37.7 ± 26 | 75.5 ± 20 | 38.2 ± 30 | 47 ± 31 | 41.3 ± 28 |  |  |  |  |  | 
